Test results: patent US20260132123A1, “ABAD INHIBITOR COMPOUNDS” (UNIVERSITY COURT OF THE UNIVERSITY OF ST ANDREWS, priority 2021, published 2026)

Legend:
17β-HSD10 = biological target: T1, 17β-HSD10 (Homo sapiens, UniProt Q99714); experiment: 17β-HSD10 (ABAD) enzyme inhibition assay, NADH oxidation read at 340 nm (primary screen and dose response); assay type: biochemical; settings: for EC50 / Max. Effect (%) / Hill Slope / Max. Fit / Min. Fit: recombinant 17βHSD10 enzyme assay; for Hill Slope / Max. Fit / Min. Fit: curve fit
T1 construct: Histev (histidine tag with TEV site) (N, cleaved yes); made in house; host or cells: E. coli BL21-CodonPlus
T1 sequence (Q99714 1-261): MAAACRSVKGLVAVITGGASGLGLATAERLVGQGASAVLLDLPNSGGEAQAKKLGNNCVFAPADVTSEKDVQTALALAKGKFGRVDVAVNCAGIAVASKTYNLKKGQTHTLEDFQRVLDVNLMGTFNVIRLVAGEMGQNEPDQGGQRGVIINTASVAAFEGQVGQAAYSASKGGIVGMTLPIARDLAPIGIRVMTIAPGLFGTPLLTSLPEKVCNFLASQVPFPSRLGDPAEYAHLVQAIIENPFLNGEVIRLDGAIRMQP
Method in brief: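 Screening used a 35 min room-temperature endpoint A340 read after compound (10 μM) and enzyme (2.5 nM, E. coli-expressed, His-tag removed) preincubated 15 min, then 100 μM NADH plus acetoacetyl-CoA added. Dose-response runs tracked absorbance kinetically 45 min; buffer pH 7.4 Tris with BSA, DTT.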

mtsABAD HEK293 cells [1] = experiment: Lactate dehydrogenase (LDH) cytotoxicity assay; assay type: cell-based, human; settings: 50 μM compound
Protocol: Cell cytotoxicity was assessed via the measurement of lactate dehydrogenase leakage into the culture medium using a commercially available kit from Pierce (Thermo Scientific cat no. 88953). This was carried out in accordance with the kit guidelines, with the activity of Lactate Dehydrogenase (LDH) being calculated from the change in absorbance at […] as NADH is reduced. HEK293 cells overexpressing mts17β-HSD10 were cultured in phenol-red free media (10% fetal bovine serum (FBS), 1 mM sodium pyruvate, 100 units penicillin, 0.1 mg/mL streptomycin and 2 mM L-glutamine) and seeded at a density of 10,000 cells per well (100 μL, 96 well plates). […] Treated cells were incubated at 37° C. and CO2 (5%) for 24 hours before the LDH assay was performed as per the manufacturer's instructions. Spontaneous control (water) and maximum control (lysis buffer) used in accordance with the kit guide. Absorbance was measured at 490 nm and 680 nm using a SpectraMaxM2e spectrophotometer. The measured LDH activity was used to calculate % cytotoxicity using the following equation: […]

mtsABAD HEK293 cells [2] = experiment: Alamar Blue cell viability assay; assay type: cell-based, human; settings: 50 μM compound
Protocol: Cell viability was assessed via fluorescence change using the commercially available Alamar Blue from ThermoFisher. HEK293 cells overexpressing mts17β-HSD10 were cultured in phenol-red free media (10% FBS, 1 mM sodium pyruvate, 100 units penicillin, 0.1 mg/mL streptomycin and 2 mM L-glutamine) and seeded at a density of 10,000 cells per well (100 μL, 96 well plates). […] Treated cells were then incubated at 37° C. and CO2 (5%) for 24 hours before the assay was performed as per the manufacturer's instructions. Fluorescence was measured at 530 nm excitation and 590 nm emission using a SpectraMaxM2e spectrophotometer.

Row | EC50 (17β-HSD10) | Max. Effect (%) (17β-HSD10) | Hill Slope (17β-HSD10) | Max. Fit (17β-HSD10) | Min. Fit (17β-HSD10) | IC50 (17β-HSD10; 17β-HSD10 dose response / inhibition assay, read-out: 17β-HSD10 pIC50 (converted)) | SMILES | LDH % Toxicity (50 μM Dose) (mtsABAD HEK293 cells [1]) | Alamar Blue % Viability (50 μM Dose) (mtsABAD HEK293 cells [2]) | LDH % Toxicity (50 μM Dose) (mtsABAD HEK293 cells [1]; listed as ESC1002205-01) | Alamar Blue % Viability (50 μM Dose) (mtsABAD HEK293 cells [2]; listed as ESC1002205-01)
1 | 5890 nM | 79% | 1 | 101 | −2 | – | Cc1ccsc1C(=O)N1CCC[C@H]1c1ccccc1-c1ccc(S(C)(=O)=O)cc1 [ESC1002319] | 5.17% | 82.10% | – | –
2 | 708 nM | 97% | 1.1 | 99 | 4 | – | COc1cccc(-c2ccccc2[C@@H]2CCCN2C(=O)c2sccc2C)c1OC [ESC1002326] | 5.05% | 88.92% | – | –
3 | 6460 nM | 74% | 0.98 | 100 | −4 | – | COCCN(C(=O)c1ccccc1F)c1cccc(N(C)Cc2c[nH]cn2)c1 [ESC1002266, 2-fluoro-N-[3-[1H-imidazol-4-ylmethyl(methyl)amino]phenyl]-N-(2-methoxyethyl)benzamide] | 5.22% | 89.86% | – | –
4 | 309 nM | 98% | 0.87 | 100 | −11 | – | COc1ccccc1-c1ccccc1[C@@H]1CCCN1C(=O)c1sccc1C [ESC1002325] | 4.36% | 89.12% | – | –
5 | 5750 nM | 80% | 0.98 | 104 | 0 | – | CC(C)CN(C(=O)c1ccccc1F)c1cccc(N(C)Cc2ccccn2)c1 [ESC1002209] | 5.698% | 80.514% | – | –
6 | 1910 nM | 91% | 1.1 | 98 | −1 | – | Cc1ccsc1C(=O)N1CCC[C@H]1c1ccccc1-c1ccc(N2CCOCC2)cc1 [ESC1002318] | 2.55% | 85.76% | – | –
7 | 631 nM | 105% | 1.6 | 96 | −7 | – | Cc1ccsc1C(=O)N1CCC[C@H]1c1ccccc1-c1ccc(Cl)cc1Cl [ESC1002340] | 5.33% | 94.26% | – | –
8 | 2950 nM | 85% | 1.1 | 93 | −3 | – | CCCC(=O)N(CC(C)C)c1cccc(N(C)Cc2cnc[nH]2)c1 [ESC1002235, N-[3-[1H-imidazol-5-ylmethyl(methyl)amino]phenyl]-N-isobutyl-butanamide] | 5.54% | 84.09% | – | –
9 | 6170 nM | 72% | 1.4 | 82 | 0 | – | CC(C)CN(C(=O)c1ccccc1F)c1cccc(N(C)Cc2cccnc2)c1 [ESC1002210] | 5.509% | 93.200% | – | –

Continued, molecule first:

Row | SMILES | EC50 (17β-HSD10) | Max. Effect (%) (17β-HSD10) | Hill Slope (17β-HSD10) | Max. Fit (17β-HSD10) | Min. Fit (17β-HSD10) | IC50 (17β-HSD10; 17β-HSD10 dose response / inhibition assay, read-out: 17β-HSD10 pIC50 (converted)) | LDH % Toxicity (50 μM Dose) (mtsABAD HEK293 cells [1]) | Alamar Blue % Viability (50 μM Dose) (mtsABAD HEK293 cells [2]) | LDH % Toxicity (50 μM Dose) (mtsABAD HEK293 cells [1]; listed as ESC1002205-01) | Alamar Blue % Viability (50 μM Dose) (mtsABAD HEK293 cells [2]; listed as ESC1002205-01)
10 | COCCN(C(=O)c1ccccc1F)c1cccc(N(C)Cc2cn(CCOC)cn2)c1 [ESC1002164, 2-fluoro-N-(2-methoxyethyl)-N-[3-[[1-(2-methoxyethyl)imidazol-4-yl]methyl-methylamino]phenyl]benzamide] | > 20000 nM | 2% | – | – | – | – | 5.093% | 77.951% | – | –
11 | CC(C)CN(C(=O)c1ccccc1F)c1cccc(N(C)Cc2nccn2C)c1 [ESC1002202] | 10000 nM | 57% | 1.3 | 79 | 0 | – | 2.542% | 81.531% | – | –
12 | CC(=O)N(CC(C)C)c1cccc(N(C)Cc2cnc[nH]2)c1 [ESC1002171, N-[3-[1H-imidazol-5-ylmethyl(methyl)amino]phenyl]-N-isobutyl-acetamide] | > 20000 nM | 34% | – | – | – | – | 5.933% | 86.843% | – | –
13 | Cc1ccsc1C(=O)N1CCC[C@@H]1c1ccccc1-c1cn[nH]c1 [ESC1002092] | 1230 nM | 93% | 1 | 98 | 0 | – | 4.240% | 80.606% | – | –
14 | Cc1n[nH]c(Cc2ccccc2)c1-c1ccccc1O [ESC1002170, 2-(5-benzyl-3-methyl-1H-pyrazol-4-yl) phenol] | 501 nM | 99% | 1.1 | 98 | 0 | – | 5.192% | 79.141% | – | –
15 | COCCn1cnc(CN(C)c2cccc(NC(=O)c3ccccc3F)c2)c1 [ESC1002163] | > 20000 nM | 0% | – | – | – | – | 4.975% | 78.775% | – | –
16 | CC(C)CN(C(=O)c1ccccc1F)c1cccc(N(C)Cc2cncs2)c1 [ESC1002208] | > 20000 nM | 50% | – | – | – | – | 20.084% | 65.577% | – | –
17 | CC(C)CN(C(=O)c1ccc(Cl)cc1)c1cccc(N(C)Cc2cnc[nH]2)c1 [ESC1002183, 4-chloro-N-[3-[1H-imidazol-5-ylmethyl(methyl)amino]phenyl]-N-isobutyl-benzamide] | 776 nM | 95% | 1.2 | 97 | 0 | – | 5.082% | 89.373% | – | –
18 | CC(C)CN(C(=O)CCc1ccccc1)c1cccc(N(C)Cc2cnc[nH]2)c1 [ESC1002168, N-[3-[1H-imidazol-5-ylmethyl(methyl)amino]phenyl]-N-isobutyl-3-phenyl-propanamide] | 8910 nM | 72% | 1.1 | 100 | 0 | – | 4.285% | 82.648% | – | –
19 | CC(C)CN(C(=O)c1cccc2ccccc12)c1cccc(N(C)Cc2cnc[nH]2)c1 [ESC1002172, N-[3-[1H-imidazol-5-ylmethyl(methyl)amino]phenyl]-N-isobutyl-naphthalene-1-carboxamide] | 2820 nM | 87% | 1.1 | 96 | 0 | – | 5.472% | 85.337% | – | –
20 | CC(C)CN(C(=O)c1ccccc1F)c1cccc(N(C)Cc2cn(C)cn2)c1 [ESC1002200] | 9120 nM | 67% | 1 | 96 | 0 | – | 5.136% | 79.220% | – | –
21 | COc1ccc(-c2ccccc2[C@H]2CCCN2C(=O)c2sccc2C)cn1 (single isomer, unassigned) [ESC1002162] | 490 nM | 98% | 1 | 99 | 0 | 490 nM | 6.843% | 83.498% | – | –
22 | CC(C)CN(C(=O)c1ccccc1F)c1cccc(N(C)Cc2ccn[nH]2)c1 [ESC1002205] | – | 96% | 1.1 | 97 | 0 | – | – | – | 5.840% | 95.933%
23 | CC(C)CN(C(=O)Cc1ccccc1)c1cccc(N(C)Cc2cnc[nH]2)c1 [ESC1002167, N-[3-[1H-imidazol-5-ylmethyl(methyl)amino]phenyl]-N-isobutyl-2-phenyl-acetamide] | 12600 nM | 62% | 1 | 100 | 0 | – | 4.492% | 79.269% | – | –
